The values below are quoted from earlier work in paper PMC5613053 (Investigational New Drugs, 2017).

The subject of one data set is MV4–11-luc cells. Further details: method as in PMID 24046014. The conditions noted are these: maximum tolerated dose; cited from earlier work.
The next data set concerns MV4–11 cells. The conditions noted are these: read-out: Concentration inhibiting growth of MV4–11 cells; cited from earlier work.

In the case of `CC1(COc2ccc3c(c2)ncn3-c2ccc3cccc(N4CCC(N)CC4)c3n2)COC1` [crenolanib], the “Efficacy in xenograft model” value in the data set on MV4–11-luc cells was “limited efficacy”. The IC50 with MV4–11 cells was 1.3 nM.
